Our source for the logD values is the SangsterLogP compilation.

SMILES strings stand for the structures.

The data set can be described thus: method code SF-AS, from DOI: 10.1080/09553007914550151, PMID: 312783. The note with it: pH 7.4.
What is called logD is lipophilicity at a set pH, counting ionised and neutral species. Read a low logD as a more hydrophilic compound. Take `COCC(O)Cn1cc([N+](=O)[O-])nc1C` (configuration not stated): the logD is -0.36.

With `O=[N+]([O-])c1nccn1CCN1CCOCC1`, the logD is -0.1. In turn, `COC(=O)Cn1ccnc1[N+](=O)[O-]` returned a logD of -0.09. To `O=[N+]([O-])c1nccn1CCCOc1ccccc1` belongs 2.38; to `COC(=O)c1cnc([N+](=O)[O-])n1C`, 0.51; to `O=[N+]([O-])c1nccn1CCS(=O)(=O)c1ccccc1`, 0.52. The compound `O=[N+]([O-])c1nccn1CCOc1ccccc1` registered a logD of 1.89.

`COCc1ccc([N+](=O)[O-])o1` yielded a logD of 0.89. To `CCOCCn1ccnc1[N+](=O)[O-]` belongs 0.53. Compound `O=[N+]([O-])c1cn(CCN2CCOCC2)cn1` yielded a log distribution coefficient (logD) of -0.38.

The compound `Cn1c(CO)cnc1[N+](=O)[O-]` returned a log distribution coefficient (logD) of -0.35. `COCCn1ccnc1[N+](=O)[O-]`: the logD came to 0.12. Regarding `Cn1c(C(C)(C)O)cnc1[N+](=O)[O-]`, the logD is 0.43. For `CC(=O)Cn1ccnc1[N+](=O)[O-]`, the logD is -0.34. The compound `CS(=O)(=O)CCn1ccnc1[N+](=O)[O-]` showed a log distribution coefficient (logD) of -1.3.

For the compound `C=Cc1cnc([N+](=O)[O-])n1C`, the logD came to 0.64. In turn, `CC(C)OCC(O)Cn1ccnc1[N+](=O)[O-]` (configuration not stated) came in with a log distribution coefficient (logD) of 0.51.
